One data set has as its system CCR2. Description: CCR2 expression in monocytic MDSCs (cDNA array, quantitative PCR, FACS). The class given is in vivo, mouse. To be noted: three days of treatment, 30 or 75 mg/kg/d orally, LLC mice. An excerpt: FIGS. 2A-2G. […] FACS and graphs showing percentages and absolute numbers of the donor-derived-cell subset (CD45.1^+ cells) in both lungs of the recipient LLC mice (n=3 mice per group). FIG. 2C: Cell-sorting schema for collecting monocytic MDSCs on day 3 after resection (left). Volcano plots showing differences in RNA expression of monocytic MDSCs from the bone marrow (BM) or lung between low-dose-AET-and vehicle-treated LLC mice (right) (n=3 biological replicates). FIG. 2D: Agilent cDNA array expression of chemokines and chemokine receptors in monocytic MDSCs from bone marrow or lungs of low-dose-AET-and vehicle-treated LLC mice (n=3 biological replicates). False-discovery-rate (FDR)-adjusted P values of CCR2 are 0.005 (bone marrow) and 0.016 (lung). Cxcr7 is also known as Ackr3. […] In the FACS plot, red represents low-dose AET and blue represents mock treatment. […]
FIGS. 10A-10H. […] CD45.1^+ cells (transferred polymorphonuclear MDSCs) were identified in the lungs of the recipient mice and analyzed by flow cytometry (right, n=3 mice per group). […] CD45.1^+ cells (transferred polymorphonuclear MDSCs) were identified in the lungs of the recipient CD45.2 mice and analyzed by flow cytometry at 18 h after transfer (right, n=3 mice per group). […] Gene-set enrichment P values, NES values and FDR values reported are calculated with 1,000 permutations in the GSEA software. […]

The conditions of data set [1]: cited from earlier work.

Structures are written as SMILES. Read-outs that look alike come from different tables or passages of the source.

For the compound `Cc1ccc2nc(NCCN)c3ncc(C)n3c2c1` [BMS-345541], in the data set with CCR2, the “expression of CCR2 in monocytic MDSCs from bone marrow in vivo” value is recorded as “decreased expression”.

Take `Nc1ncn([C@@H]2O[C@H](CO)[C@@H](O)[C@H]2O)c(=O)n1` [5-azacitidine, 4-amino-1-β-D-ribofuranozyl-s-triazin-2(1H)-one]: the solubility entry in data set [1] (in acetone, ethanol and methyl ketone) was “insoluble”; in data set [1] (in dimethylsulfoxide (DMSO)), “soluble”; in data set [1] (in ethanol/water (50/50), propylene glycol and polyethylene glycol) it was “slightly soluble”; in data set [1] (in water, water-saturated octanol, 5% dextrose in water, N-methyl-2-pyrrolidone, normal saline and 5% Tween 80 in water), “sparingly soluble”.
